Each molecule was assayed against T1, human RORgT (Homo sapiens, UniProt P51449) (assay: RORgT Gal4 Luciferase Reporter Gene Assay). Conditions: engineered Jurkat cells overexpressing RORgT (LBD or full length) fused with Gal4 Luc reporter; 18 hours at 37° C.; luminescence.
T1 construct: expressed in transfected cells
T1 sequence (P51449 267-516): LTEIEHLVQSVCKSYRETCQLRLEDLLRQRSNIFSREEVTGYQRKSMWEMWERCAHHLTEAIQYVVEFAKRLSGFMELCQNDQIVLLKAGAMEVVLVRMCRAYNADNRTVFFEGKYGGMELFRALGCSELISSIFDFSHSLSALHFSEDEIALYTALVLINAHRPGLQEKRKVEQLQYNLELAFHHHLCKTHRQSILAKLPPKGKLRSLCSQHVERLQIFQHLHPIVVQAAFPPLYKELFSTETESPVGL
Type: cell-based
In short: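 Jurkat cells expressing Gal4 Luc with either RORgT LBD (aa267-516) or full-length human RORgT, 10,000 cells/well, treated with compound (40 µM to 0.67 nM final, 3-fold dilutions) for 18 h at 37° C. Steady-Glo luminescence read; inhibition of constitutive activity as % signal-window reduction relative to a control compound.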
For `O=C(O)[C@H]1CC[C@H](C(=O)N2CC[C@@]3(S(=O)(=O)c4ccccc4)c4ccc(OCc5c(F)cccc5Cl)cc4CC[C@@H]23)CC1` [Example 142, (1r,4r)-4-[(3aR,9bR)-9b-(benzenesulfonyl)-7-[(2-chloro-6-fluorophenyl)methoxy]-1H,2H,3H,3aH,4H,5H,9bH-benzo[e]indole-3-carbonyl]cyclohexane-1-carboxylic acid], the EC50 was 13 nM. `O=C1CC[C@H](C(=O)N2CC[C@@]3(S(=O)(=O)c4ccccc4)c4ccc(OCc5c(F)cccc5Cl)cc4CC[C@@H]23)N1` [Example 143, (5R)-5-[(3aR,9bR)-9b-(benzenesulfonyl)-7-[(2-chloro-6-fluorophenyl)methoxy]-1H,2H,3H,3aH,4H,5H,9bH-benzo[e]indole-3-carbonyl]pyrrolidin-2-one] was tested, and the EC50 was 195 nM. In the case of `CN1NC(=O)C[C@H]1C(=O)N1CC[C@@]2(S(=O)(=O)c3ccccc3)c3ccc(OCc4c(F)cccc4Cl)cc3CC[C@@H]12` [Example 144, (5S)-5-[(3aR,9bR)-9b-(benzenesulfonyl)-7-[(2-chloro-6-fluorophenyl)methoxy]-1H,2H,3H,3aH,4H,5H,9bH-benzo[e]indole-3-carbonyl]-1-methylpyrazolidin-3-one], the EC50 is reported as 111 nM. Molecule `CS(=O)(=O)NCC(=O)N1CC[C@@]2(S(=O)(=O)c3ccccc3)c3ccc(OCc4c(F)cccc4Cl)cc3CC[C@@H]12` [Example 145, N-{2-[(3aR,9bR)-9b-(benzenesulfonyl)-7-[(2-chloro-6-fluorophenyl)methoxy]-1H,2H,3H,3aH,4H,5H,9bH-benzo[e]indol-3-yl]-2-oxoethyl} methanesulfonamide] has an EC50 of 614 nM. With `[2H]C([2H])([2H])N1C(=O)CC[C@H]1C(=O)N1CC[C@@]2(S(=O)(=O)c3ccccc3)c3ccc(OCc4c(F)cccc4Cl)cc3CC[C@@H]12` [Example 146, (5S)-5-[(3aR,9bR)-9b-(benzenesulfonyl)-7-[(2-chloro-6-fluorophenyl)methoxy]-1H,2H,3H,3aH,4H,5H,9bH-benzo[e]indole-3-carbonyl]-1-(^2H)methylpyrrolidin-2-one] the EC50 was 6.5 nM. For `O=C(O)C12CCC(C(=O)N3CC[C@@]4(S(=O)(=O)c5ccccc5)c5ccc(OCc6c(F)cccc6Cl)cc5CC[C@@H]34)(CC1)CC2` [Example 147, 4-[(3aR,9bR)-9b-(benzenesulfonyl)-7-[(2-chloro-6-fluorophenyl)methoxy]-1H,2H,3H,3aH,4H,5H,9bH-benzo[e]indole-3-carbonyl]bicyclo[2.2.2]octane-1-carboxylic acid], the EC50 was 104 nM. `NS(=O)(=O)CC(=O)N1CC[C@@]2(S(=O)(=O)c3ccccc3)c3ccc(OCc4c(F)cccc4Cl)cc3CC[C@@H]12` [Example 148, 2-[(3aR,9bR)-9b-(benzenesulfonyl)-7-[(2-chloro-6-fluorophenyl)methoxy]-1H,2H,3H,3aH,4H,5H,9bH-benzo[e]indol-3-yl]-2-oxoethane-1-sulfonamide] was tested, and the EC50 was 119 nM. `O=C(C1CCS(=O)(=O)CC1)N1CC[C@@]2(S(=O)(=O)c3ccccc3)c3ccc(OCc4c(F)cc(F)cc4Cl)cc3CC[C@@H]12` [Example 149, 4-[(3aR,9bR)-9b-(benzenesulfonyl)-7-[(2-chloro-4,6-difluorophenyl)methoxy]-1H,2H,3H,3aH,4H,5H,9bH-benzo[e]indole-3-carbonyl]-1λ^6-thiane-1,1-dione] gave an EC50 of 7.7 nM. `CN1C(=O)CC[C@H]1C(=O)N1CC[C@@]2(S(=O)(=O)c3ccccc3)c3ccc(OCc4c(F)cccc4Cl)cc3CC[C@@H]12` [Example 150, (5S)-5-[(3aR,9bR)-9b-(benzenesulfonyl)-7-[(2-chloro-6-fluorophenyl)methoxy]-1H,2H,3H,3aH,4H,5H,9bH-benzo[e]indole-3-carbonyl]-1-methylpyrrolidin-2-one] was tested, and the EC50 was 6.1 nM. Molecule `O=C(O)[C@H]1CC[C@H](C(=O)N2CC[C@@]3(S(=O)(=O)c4ccc(F)cc4)c4ccc(OCc5cc(F)c(F)cc5Cl)cc4CC[C@@H]23)CC1` [Example 151, (1r,4r)-4-[(3aR,9bR)-7-[(2-chloro-4,5-difluorophenyl)methoxy]-9b-(4-fluorobenzenesulfonyl)-1H,2H,3H,3aH,4H,5H,9bH-benzo[e]indole-3-carbonyl]cyclohexane-1-carboxylic acid] has an EC50 of 16 nM.

From patent US20230295087A1, “AGONISTS OF ROR GAMMAt” (BRISTOL-MYERS SQUIBB COMPANY, priority 2019, published 2023)
